{"source": "ChEMBL document CHEMBL1127517", "about": "(J Med Chem, 1994)", "key": {"Rattus norvegicus [1]": {"test_system": "Rattus norvegicus", "test": "Distribution of radio activity in tissues of unfasted male rats was measured at 60 min of time in heart after intravenous administration", "type": "ADME, organism-based", "settings": "in vivo, 1 h"}, "Rattus norvegicus [2]": {"test_system": "Rattus norvegicus", "test": "Distribution of radio activity in tissues of unfasted male rats was measured as regional uptake at 60 min of time in hippocampus after intravenous administration", "type": "ADME, organism-based", "settings": "in vivo, 1 h"}, "Rattus norvegicus [3]": {"test_system": "Rattus norvegicus", "test": "Distribution of radio activity in tissues of unfasted male rats was measured as regional uptake at 60 min of time in ST/CB after intravenous administration", "type": "ADME, organism-based", "settings": "in vivo, 1 h"}, "Rattus norvegicus [4]": {"test_system": "Rattus norvegicus", "test": "Distribution of radio activity in tissues of unfasted male rats was measured as regional uptake at 120 min of time in cerebellum after intravenous administration", "type": "ADME, organism-based", "settings": "in vivo, 2 h"}, "Rattus norvegicus [5]": {"test_system": "Rattus norvegicus", "test": "Distribution of radio activity in tissues of unfasted male rats was measured at 120 min of time in spleen after intravenous administration", "type": "ADME, organism-based", "settings": "in vivo, 2 h"}, "Rattus norvegicus [6]": {"test_system": "Rattus norvegicus", "test": "Distribution of radio activity in tissues of unfasted male rats was measured at 2 min of time in thyroid after intravenous administration", "type": "ADME, organism-based, Thyroid gland", "settings": "in vivo"}, "Rattus norvegicus [7]": {"test_system": "Rattus norvegicus", "test": "Distribution of radio activity in tissues of unfasted male rats was measured at 60 min of time in liver after intravenous administration", "type": "ADME, organism-based", "settings": "in vivo, 1 h"}, "Rattus norvegicus [8]": {"test_system": "Rattus norvegicus", "test": "Distribution of radio activity in tissues of unfasted male rats was measured at 30 min of time in liver after intravenous administration", "type": "ADME, organism-based", "settings": "in vivo, 0.5 h"}, "Rattus norvegicus [9]": {"test_system": "Rattus norvegicus", "test": "Distribution of radio activity in tissues of unfasted male rats was measured at 60 min of time in kidney after intravenous administration", "type": "ADME, organism-based", "settings": "in vivo, 1 h"}, "Rattus norvegicus [10]": {"test_system": "Rattus norvegicus", "test": "Distribution of radio activity in tissues of unfasted male rats was measured at 120 min of time in thyroid after intravenous administration", "type": "ADME, organism-based, Thyroid gland", "settings": "in vivo, 2 h"}, "Rattus norvegicus [11]": {"test_system": "Rattus norvegicus", "test": "Distribution of radio activity in tissues of unfasted male rats was measured at 120 min of time in blood after intravenous administration", "type": "ADME, organism-based", "settings": "in vivo, 2 h"}, "Rattus norvegicus [12]": {"test_system": "Rattus norvegicus", "test": "Distribution of radio activity in tissues of unfasted male rats was measured at 30 min of time in thyroid after intravenous administration", "type": "ADME, organism-based, Thyroid gland", "settings": "in vivo, 0.5 h"}, "Rattus norvegicus [13]": {"test_system": "Rattus norvegicus", "test": "Distribution of radio activity in tissues of unfasted male rats was measured as regional uptake at 30 min of time in hippocampus after intravenous administration", "type": "ADME, organism-based", "settings": "in vivo, 0.5 h"}, "Rattus norvegicus [14]": {"test_system": "Rattus norvegicus", "test": "Distribution of radio activity in tissues of unfasted male rats was measured at 120 min of time in skin after intravenous administration", "type": "ADME, organism-based", "settings": "in vivo, 2 h"}, "Rattus norvegicus [15]": {"test_system": "Rattus norvegicus", "test": "Distribution of radio activity in tissues of unfasted male rats was measured as regional uptake at 30 min of time in ST/CB after intravenous administration", "type": "ADME, organism-based", "settings": "in vivo, 0.5 h"}, "Rattus norvegicus [16]": {"test_system": "Rattus norvegicus", "test": "Distribution of radio activity in tissues of unfasted male rats was measured at 30 min of time in kidney after intravenous administration", "type": "ADME, organism-based", "settings": "in vivo, 0.5 h"}, "Rattus norvegicus [17]": {"test_system": "Rattus norvegicus", "test": "Distribution of radio activity in tissues of unfasted male rats was measured as regional uptake at 2 min of time in ST/CB after intravenous administration", "type": "ADME, organism-based", "settings": "in vivo"}, "Rattus norvegicus [18]": {"test_system": "Rattus norvegicus", "test": "Distribution of radio activity in tissues of unfasted male rats was measured at 30 min of time in brain after intravenous administration", "type": "ADME, organism-based", "settings": "in vivo, 0.5 h"}, "Rattus norvegicus [19]": {"test_system": "Rattus norvegicus", "test": "Distribution of radio activity in tissues of unfasted male rats was measured as regional uptake at 120 min of time in ST/CB after intravenous administration", "type": "ADME, organism-based", "settings": "in vivo, 2 h"}, "Rattus norvegicus [20]": {"test_system": "Rattus norvegicus", "test": "Distribution of radio activity in tissues of unfasted male rats was measured at 30 min of time in lung after intravenous administration", "type": "ADME, organism-based", "settings": "in vivo, 0.5 h"}, "Rattus norvegicus [21]": {"test_system": "Rattus norvegicus", "test": "Distribution of radio activity in tissues of unfasted male rats was measured at 2 min of time in muscle after intravenous administration", "type": "ADME, organism-based, Muscle tissue", "settings": "in vivo"}, "Rattus norvegicus [22]": {"test_system": "Rattus norvegicus", "test": "Distribution of radio activity in tissues of unfasted male rats was measured as regional uptake at 60 min of time in cerebellum after intravenous administration", "type": "ADME, organism-based", "settings": "in vivo, 1 h"}, "Rattus norvegicus [23]": {"test_system": "Rattus norvegicus", "test": "Distribution of radio activity in tissues of unfasted male rats was measured as at 2 min of time in skin after intravenous administration", "type": "ADME, organism-based", "settings": "in vivo"}, "[24]": {"target": "Sodium-dependent dopamine transporter (Rattus norvegicus, UniProt P23977)", "sequence (P23977 whole entry)": "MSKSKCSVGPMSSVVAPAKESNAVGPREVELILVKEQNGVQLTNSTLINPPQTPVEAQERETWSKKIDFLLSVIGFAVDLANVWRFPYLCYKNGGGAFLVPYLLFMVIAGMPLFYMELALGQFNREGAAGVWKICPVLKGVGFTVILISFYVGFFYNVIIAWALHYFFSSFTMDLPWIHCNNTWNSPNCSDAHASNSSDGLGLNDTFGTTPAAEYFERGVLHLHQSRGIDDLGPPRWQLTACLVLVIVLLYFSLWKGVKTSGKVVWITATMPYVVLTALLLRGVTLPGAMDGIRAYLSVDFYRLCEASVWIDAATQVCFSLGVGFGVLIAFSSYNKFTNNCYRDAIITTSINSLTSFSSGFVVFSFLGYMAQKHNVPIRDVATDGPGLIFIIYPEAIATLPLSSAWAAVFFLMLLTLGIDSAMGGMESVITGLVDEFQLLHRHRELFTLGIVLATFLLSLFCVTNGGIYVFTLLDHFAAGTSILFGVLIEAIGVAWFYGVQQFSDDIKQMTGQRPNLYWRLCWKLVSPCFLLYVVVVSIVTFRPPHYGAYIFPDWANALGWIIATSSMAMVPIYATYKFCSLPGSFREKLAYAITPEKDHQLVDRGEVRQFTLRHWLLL", "test": "Inhibitory constant towards reuptake of [125I]-13 from dopamine transporter in rat striatal membranes", "type": "cell membranes, Membrane"}, "Rattus norvegicus [25]": {"test_system": "Rattus norvegicus", "test": "Distribution of radio activity in tissues of unfasted male rats was measured at 60 min of time in lung after intravenous administration", "type": "ADME, organism-based", "settings": "in vivo, 1 h"}, "Rattus norvegicus [26]": {"test_system": "Rattus norvegicus", "test": "Distribution of radio activity in tissues of unfasted male rats was measured at 2 min of time in brain after intravenous administration", "type": "ADME, organism-based", "settings": "in vivo"}, "Rattus norvegicus [27]": {"test_system": "Rattus norvegicus", "test": "Distribution of radio activity in tissues of unfasted male rats was measured as regional uptake at 120 min of time in cortex after intravenous administration", "type": "ADME, organism-based", "settings": "in vivo, 2 h"}, "Rattus norvegicus [28]": {"test_system": "Rattus norvegicus", "test": "Distribution of radio activity in tissues of unfasted male rats was measured as regional uptake at 2 min of time in striatum after intravenous administration", "type": "ADME, organism-based", "settings": "in vivo"}, "Rattus norvegicus [29]": {"test_system": "Rattus norvegicus", "test": "Distribution of radio activity in tissues of unfasted male rats was measured as regional uptake at 30 min of time in cortex after intravenous administration", "type": "ADME, organism-based", "settings": "in vivo, 0.5 h"}, "Rattus norvegicus [30]": {"test_system": "Rattus norvegicus", "test": "Distribution of radio activity in tissues of unfasted male rats was measured at 30 min of time in heart after intravenous administration", "type": "ADME, organism-based", "settings": "in vivo, 0.5 h"}, "Rattus norvegicus [31]": {"test_system": "Rattus norvegicus", "test": "Distribution of radio activity in tissues of unfasted male rats was measured at 2 min of time in heart after intravenous administration", "type": "ADME, organism-based", "settings": "in vivo"}}, "data": [{"smiles": "COC(=O)C1C(c2ccc(Cl)cc2)CC2CCC1N2C/C=C\\I", "note": "(stereo unspecified)", "values": [{"measurement": "Injected dose/organ", "setting": "Rattus norvegicus [1]", "result": 0.16, "unit": "%"}, {"measurement": "Dose/g", "setting": "Rattus norvegicus [2]", "result": 0.04, "unit": "%"}, {"measurement": "Dose/g", "setting": "Rattus norvegicus [3]", "result": 2.7, "unit": "%"}, {"measurement": "Dose/g", "setting": "Rattus norvegicus [4]", "result": 0.02, "unit": "%"}, {"measurement": "Injected dose/organ", "setting": "Rattus norvegicus [5]", "result": 0.09, "unit": "%"}, {"measurement": "Injected dose/organ", "setting": "Rattus norvegicus [6]", "result": 0.08, "unit": "%"}, {"measurement": "Injected dose/organ", "setting": "Rattus norvegicus [7]", "result": 1.6, "unit": "%"}, {"measurement": "Injected dose/organ", "setting": "Rattus norvegicus [8]", "result": 2.78, "unit": "%"}, {"measurement": "Injected dose/organ", "setting": "Rattus norvegicus [9]", "result": 0.56, "unit": "%"}, {"measurement": "Injected dose/organ", "setting": "Rattus norvegicus [10]", "result": 1.29, "unit": "%"}, {"measurement": "Injected dose/organ", "setting": "Rattus norvegicus [11]", "result": 5.16, "unit": "%"}, {"measurement": "Injected dose/organ", "setting": "Rattus norvegicus [12]", "result": 1.02, "unit": "%"}, {"measurement": "Dose/g", "setting": "Rattus norvegicus [13]", "result": 0.12, "unit": "%"}, {"measurement": "Injected dose/organ", "setting": "Rattus norvegicus [14]", "result": 19.3, "unit": "%"}, {"measurement": "Dose/g", "setting": "Rattus norvegicus [15]", "result": 3, "unit": "%"}, {"measurement": "Injected dose/organ", "setting": "Rattus norvegicus [16]", "result": 0.78, "unit": "%"}, {"measurement": "Dose/g", "setting": "Rattus norvegicus [17]", "result": 1.12, "unit": "%"}, {"measurement": "Injected dose/organ", "setting": "Rattus norvegicus [18]", "result": 0.21, "unit": "%"}, {"measurement": "Dose/g", "setting": "Rattus norvegicus [19]", "result": 1.9, "unit": "%"}, {"measurement": "Injected dose/organ", "setting": "Rattus norvegicus [20]", "result": 0.78, "unit": "%"}, {"measurement": "Injected dose/organ", "setting": "Rattus norvegicus [21]", "result": 29.15, "unit": "%"}, {"measurement": "Dose/g", "setting": "Rattus norvegicus [22]", "result": 0.04, "unit": "%"}, {"measurement": "Injected dose/organ", "setting": "Rattus norvegicus [23]", "result": 7.27, "unit": "%"}, {"measurement": "Ki", "setting": "[24]", "result": 6.3, "unit": "nM"}, {"measurement": "Injected dose/organ", "setting": "Rattus norvegicus [25]", "result": 0.5, "unit": "%"}, {"measurement": "Injected dose/organ", "setting": "Rattus norvegicus [26]", "result": 1.27, "unit": "%"}, {"measurement": "Dose/g", "setting": "Rattus norvegicus [27]", "result": 0.03, "unit": "%"}, {"measurement": "Dose/g", "setting": "Rattus norvegicus [28]", "result": 0.92, "unit": "%"}, {"measurement": "Dose/g", "setting": "Rattus norvegicus [29]", "result": 0.11, "unit": "%"}, {"measurement": "Injected dose/organ", "setting": "Rattus norvegicus [30]", "result": 0.22, "unit": "%"}, {"measurement": "Injected dose/organ", "setting": "Rattus norvegicus [31]", "result": 0.85, "unit": "%"}]}]}
